Where two headings read alike, the source gives them in different places.
Test system: mAb 7D8
Assay: Surface plasmon resonance of mAb 7D8 binding to amino-coupled peptopes
Experimental: Analyses were performed using a BIAcore X surface plasmon resonance instrument (GE Healthcare) and all reagents were obtained from GE Healthcare. For chip preparation, the peptides were attached to CM-5 chips using the amino-coupling method supplied with the instrument software. Briefly, chips were activated by injection (35 μL) of a mixture of ECD/NHS at a flow rate of 5 μL/min. Immediately thereafter, 35 μL of the test peptide (peptope p75, p76, p77, or p78), diluted to 1 μg/mL in NaOAc buffer, pH 5.5, was injected. After peptide coupling, the remaining active groups on the chip were blocked by injection of 35 μL of 1 M ethanolamine-HCl pH 8.5. Test peptides p75, p76, p77, or p78 were coupled to the Fc-1 channel and peptide p5, which served as a control, was coupled to the Fc-2 channel. A sensorgram was initiated on each chip in HBS-EP buffer at 10 μL per min. An initial regeneration step consisting of a 20 μL injection of pH 2.5 glycine buffer was performed and the baseline allowed to equilibrate. Antibody 7D8 was diluted to a stock of 10 μg/mL in HBS-EP buffer which was further diluted to a 0.4 μg/mL (˜2.7 nM) working dilution immediately before injection. The antibody was injected (50 μL) and the data collected for 200 seconds using a delayed wash cycle. The chip was subjected to a regeneration step before the next test injection. Binding data were extracted from the sensorgram, aligned, and analyzed using the BIAevaluation software by fitting to the following binding models (i) Langmuir, (ii) Langmuir with mass transfer, and (iii) Interaction of a bivalent analyte [A+B→AB; AB+B→AB2].

[1] = Langmuir with Mass Transfer, 7D8 2.7 nM

KAQKAQAKQAKQAQKAQKAQAKQAKQAQHEDT [p75, KAQKAQAKQAKQAQKAQKAQAKQAKQAQHEDT]
Rmax (RU) (Bivalent Analyte, 7D8 2.7 nM): 4.79E+03 RU
ka1 (Bivalent Analyte, 7D8 2.7 nM): 85300 M⁻¹ s⁻¹
ka2 (1/RUs) (Bivalent Analyte, 7D8 2.7 nM): 8.22E−04 1/RUs
kd1 (Bivalent Analyte, 7D8 2.7 nM): 0.0674 s⁻¹
kd2 (Bivalent Analyte, 7D8 2.7 nM): 0.0628 s⁻¹
KA [1]: 6.98e+08 M⁻¹
Req (RU) [1]: 500 RU
Rmax (RU) [1]: 765 RU
ka [1]: 5.95e+06 M⁻¹ s⁻¹
kd [1]: 0.00853 s⁻¹
kobs [1]: 0.0246 s⁻¹
kt (RU/(M*s)) [1]: 9.14E+08 RU/(M*s)
Kd (Langmuir with Mass Transfer, 7D8 2.7 nM, read-out: KD): 1.43 nM
KA (Langmuir, 7D8 2.7 nM): 1.59e+08 M⁻¹
Req (RU) (Langmuir, 7D8 2.7 nM): 654 RU
Rmax (RU) (Langmuir, 7D8 2.7 nM): 2.18E+03 RU
ka (Langmuir, 7D8 2.7 nM): 369000 M⁻¹ s⁻¹
kd (Langmuir, 7D8 2.7 nM): 0.00233 s⁻¹
kobs (Langmuir, 7D8 2.7 nM): 0.00333 s⁻¹
Kd (Langmuir, 7D8 2.7 nM, read-out: KD): 6.3 nM
binding kinetics relative to the other peptopes (surface plasmon resonance): slow and reduced off-rate
Kd (text summary of surface plasmon resonance measurements, read-out: dissociation constants (KD)): 1 to 5 nM

From US10046050B2, “Targeting immunotherapy for amyloidosis” (UNIVERSITY OF TENNESSEE RESEARCH FOUNDATION, priority 2014, dated 2018)
